Test results as given in PMC9821961, “Ring-Modified Histidine-Containing Cationic Short Peptides Exhibit Anticryptococcal Activity by Cellular Disruption” (Molecules, 2022).
Converted amounts (≈) assume the structure as drawn.

Key:
C. neoformans cells = assay: Cell death pattern analysis by flow cytometry (Annexin V-FITC/PI); assay type: cell-based, Cryptococcus neoformans; details: treated at MIC, 12 h; PI + annexin V-FITC
From the text: Apoptosis includes a series of events occurring inside the cell, causing changes in plasma membrane, genetic material and various internal proteins, therefore leading to programmed cell death. One of the early markers of apoptosis is the translocation of a membrane phospholipid, phosphatidylserine, from the inner to the outer leaflet of the plasma membrane without altering the integrity of the plasma membrane. Annexin V-FITC interacts with the externalized phosphatidylserine, therefore showing the cell change towards apoptosis which can be analyzed using flow cytometry. The four quadrants in flow cytometry indicate different stages of the cells. The percentage depicts the population of the cells in a specific stage. Q1 corresponds to the percentage of cells undergoing necrosis, Q2 depicts the early apoptotic stage of the cells whereas Q4 corresponds to the cells in late-stage apoptosis and Q3 depicts the cells in the native state.
The treated cells along with a batch of untreated cells were centrifuged at 2000× g for 10 min at 4 °C and suspended in cold phosphate-buffered saline (PBS), followed by 2–3 washings with PBS. The harvested treated and untreated cells were then incubated with zymolyase for 1 h at ambient temperature to obtain cell protoplasm. The staining of obtained protoplasm was done using an Annexin V-FITC detection kit (Sigma-Aldrich, Saint Louis, DE, USA). The protoplasm of untreated cells was divided into 4 tubes (2 mL) and into 3 tubes a different staining agent was added while one was kept unstained. […] Furthermore, two more samples were prepared where protoplasm of 10d- and 10o-treated cells were stained with both PI and annexin V-FITC. All 6 samples were then analyzed by using an FACS Calibur (Becton-Dickinson, San Jose, CA, USA) at excitation of 488 nm (for FITC) and 560 nm (for PI) band filter. Approximately 10,000 cells were used for counting.

C. krusei = assay: microbe, parasite or virus in culture; assay type: cell-based, Candida krusei; details: 48 h
Procedure, shortened: (§1)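 Growth inhibition was measured by broth microdilution. MIC and IC50 were calculated from optical density at 600 nm after 48 h at 30 °C for Candida and Cryptococcus (10^3 CFU/mL, RPMI 1640 or YPED) and after 24 h at 37 °C for the Gram-positive bacteria (10^5 CFU/mL, Mueller Hinton).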

in vitro = details: human, HeLa cells
Protocol: (§3) The cells (50,000 cells/well) were seeded to the wells of the plate in Dulbecco’s Modified Eagle Medium (DMEM) supplemented with 10% fetal bovine serum at 37 °C overnight and incubated for 24 h to achieve confluency. Peptides at different concentrations of 50, 25, 12.5, 6.25, 3.12, 1.56 and 0.78 μg/mL were added to the cells in separate wells and incubated at 37 °C for 18 h. A further 20 µL MTT solution (5 mg/mL stock conc. in PBS) was added and the plate was incubated for another 3–4 h. To detect the viable cells that react with MTT to make formazan crystals, 120 μL of supernatant was removed and 100 μL DMSO was added to dissolve the crystals. Untreated cells and DMSO (10%) were used as negative and positive controls, respectively [37]. The percent viability of cells was calculated using equation:(2) % Cell viability=Av. Absorbance of treated cells/Av. Absorbance of control cells×100

[1] = system: C. neoformans (ATCC350) cells; assay: CLSM DAPI uptake assay; assay type: cell-based, Cryptococcus neoformans; details: at MIC, 12 h, then DAPI
Protocol: After incubation, treated and untreated cells were centrifuged at 2000× g for 10 min at 4 °C and suspended in cold PBS and followed by 2–3 washings with PBS. The cells were then incubated with DAPI (3.01 μM) for 10 min at room temperature with constant shaking, harvested by centrifugation and suspended in PBS. Then, the fungal cells were examined using confocal microscopy (Olympus Fluoview™ FV1000 SPD; Olympus, Tokyo, Japan) with excitation at 350 nm and emission at 470 nm.

C. neoformans = assay: microbe, parasite or virus in culture; assay type: cell-based, Cryptococcus neoformans; details: 48 h
Procedure, shortened: (§2)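 CLSI broth microdilution with two-fold serial dilutions of DMSO-dissolved peptides. Fungi (C. glabrata MTCC 3019, C. neoformans NCCPF250316) were grown in RPMI 1640 or YPED at 10^3 CFU/mL for 48 h at 30 °C. Bacteria (S. aureus MTCC 3160, E. faecalis MTCC 439) were grown in Mueller Hinton at 10^5 CFU/mL for 24 h at 37 °C. MIC and IC50 come from OD600.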

C. glabrata = assay: microbe, parasite or virus in culture; assay type: cell-based, Candida glabrata; details: 48 h
Procedure, shortened: as §2

P. aeruginosa = assay: microbe, parasite or virus in culture; assay type: cell-based, Pseudomonas aeruginosa; details: 48 h
C. albicans = assay: microbe, parasite or virus in culture; assay type: cell-based, Candida albicans; details: 48 h
Procedure, shortened: as §1

Protocol for HeLa: as §3

Row | Compound | Cell population in Q1 (necrosis) (C. neoformans cells) [%] | Cell population in Q2 (early apoptotic stage) (C. neoformans cells) [%] | Cell population in Q3 (native state) (C. neoformans cells) [%] | Cell population in Q4 (late-stage apoptosis) (C. neoformans cells) [%] | IC50 (C. krusei) [µg/mL] | MIC (C. krusei) [µg/mL] | CC50 at 18 h (in vitro) [µg/mL] | DAPI fluorescence of treated cells (CLSM) [1] | MIC (C. neoformans) [µg/mL] | IC50 (C. glabrata) [µg/mL] | MIC (C. glabrata) [µg/mL] | IC50 (P. aeruginosa) [µg/mL] | MIC (P. aeruginosa) [µg/mL] | IC50 (C. albicans) [µg/mL] | MIC (C. albicans) [µg/mL] | Cytotoxic nature (HeLa) | IC50 (C. neoformans) [µg/mL]
1 | COC(=O)[C@H](Cc1ncn(Cc2ccccc2I)c1I)NC(=O)[C@@H](N)Cc1c[nH]c2ccccc12 [10o, Trp-His[1-(2-iodobenzyl)-5-iodo]-OMe] | 2 | 1 | 48.9 | 48.1 | >35.2 | >64.0 | > 100 | fragmented bright blue fluorescence | 4.59 (≈ 6.58 µM) | >35.2 | >64.0 | >35.2 | >64.0 | >35.2 | >64.0 | non-cytotoxic | 
2 | COC(=O)[C@H](Cc1ncn(Cc2cc(C(C)(C)C)cc(C(C)(C)C)c2)c1I)NC(=O)[C@@H](N)Cc1c[nH]c2ccccc12 [10d, Trp-His[1-(3,5-di-tert-butylbenzyl)-5-iodo]-OMe] | 1.7 | 1.3 | 44.8 | 52.2 | >35.2 | >64.0 | > 100 | fragmented bright blue fluorescence | 4.01 (≈ 5.87 µM) | >35.2 | >64.0 | >35.2 | >64.0 | >35.2 | >64.0 | non-cytotoxic | 2.20 (≈ 3.22 µM)
